Here are results for 61 compounds from ChEMBL document CHEMBL5241054, “Effective anti-aromatase therapy to battle against estrogen-mediated breast cancer: Comparative SAR/QSAR assessment on steroidal aromatase inhibitors” (Eur J Med Chem, 2020).

The assay concerns the target T1, Aromatase (Homo sapiens, UniProt P11511).
T1 sequence (P11511 whole entry): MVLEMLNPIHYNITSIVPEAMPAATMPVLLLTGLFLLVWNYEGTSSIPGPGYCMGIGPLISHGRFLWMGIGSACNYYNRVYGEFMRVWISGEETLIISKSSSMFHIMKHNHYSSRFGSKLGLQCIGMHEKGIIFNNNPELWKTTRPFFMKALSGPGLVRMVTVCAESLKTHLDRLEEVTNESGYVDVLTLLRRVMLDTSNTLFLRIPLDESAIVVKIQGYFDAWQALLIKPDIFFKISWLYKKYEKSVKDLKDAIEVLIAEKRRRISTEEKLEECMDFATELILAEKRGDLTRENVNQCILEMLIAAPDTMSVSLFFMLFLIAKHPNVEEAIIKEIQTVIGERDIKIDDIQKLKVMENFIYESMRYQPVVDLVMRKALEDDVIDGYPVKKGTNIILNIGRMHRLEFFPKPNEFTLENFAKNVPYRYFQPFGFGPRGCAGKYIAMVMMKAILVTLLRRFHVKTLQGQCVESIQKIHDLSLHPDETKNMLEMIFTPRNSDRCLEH
The term IC50 denotes the concentration that inhibits the measured activity by half. In turn, `C[C@]12CCCCC1=CC[C@@H]1[C@@H]2CC[C@]2(C)C(=O)CC[C@@H]12` had an IC50 of 0.681 µM.
Compound `C[C@]12C=CC(=O)C(Sc3ccccc3)=C1C=C[C@@H]1[C@@H]2CC[C@]2(C)C(=O)CC[C@@H]12` gave a half-inhibitory concentration (IC50) of 0.065 µM. This IC50 is about 10-fold lower than that of the compound before.
For `CC1(C)C[C@@]2(C)C(=C(O)C1=O)C(=O)C[C@@H]1[C@@H]2CC[C@]2(C)C(=O)CC[C@@H]12` the value was 0.44 µM.
For `C[C@]12CCC(=O)C(F)=C1CC[C@@H]1[C@@H]2CC[C@]2(C)C(=O)CC[C@@H]12` the value was 0.48 µM; for `C[C@]12CCC(=O)C(Sc3ccccc3)=C1C=C[C@@H]1[C@@H]2CC[C@]2(C)C(=O)CC[C@@H]12`, 0.025 µM.
In the case of `C[C@]12CCC(=O)C(O)=C1C=C[C@@H]1[C@@H]2CC[C@]2(C)C(=O)CC[C@@H]12` it was 1 µM; in that of `C[C@]12CC[C@H]3[C@@H](CCC4=CC(=O)CC[C@@]43C(F)F)[C@@H]1CCC2=O`, 4 µM.
Take `CC1(C)C[C@@]2(C)C(=CC1=O)C(=O)C[C@@H]1[C@@H]2CC[C@]2(C)C(=O)CC[C@@H]12`: it took 0.3 µM to reach half-maximal inhibition (IC50).
Compound `C[C@]12CCC(=O)C(O)=C1C(=O)C[C@@H]1[C@@H]2CC[C@]2(C)C(=O)CC[C@@H]12` showed an IC50 of 0.46 µM. This IC50 is about 1.5-fold higher than that of the compound before.
For `CC[C@]12CCC(=O)C=C1CC[C@@H]1[C@@H]2CC[C@]2(C)C(=O)CC[C@@H]12` the value was 0.3 µM.
For `C[C@]12CCC(=O)C=C1[C@H](O)C[C@@H]1[C@@H]2CC[C@]2(C)C(=O)CC[C@@H]12` the value was 11 µM; for `C[C@]12CCC(=O)C=C1[C@@H](O)C[C@@H]1[C@@H]2CC[C@]2(C)C(=O)CC[C@@H]12`, 15 µM; for `C[C@]12CC[C@H]3[C@@H](CCC4=CC(=O)CC[C@@]43CF)[C@@H]1CCC2=O`, 3 µM.
In the case of `C[C@]12CC[C@H]3[C@@H](CCC4=CC(=O)CC[C@@]43CCCl)[C@@H]1CCC2=O` it was 8 µM; in that of `CCC1C[C@H]2[C@@H]3CC[C@H](O)[C@@]3(C)CC[C@@H]2[C@@]2(C)CCC(=O)C=C12` (stereo partly specified), 0.052 µM; in that of `CCCCC1C[C@H]2[C@@H]3CC[C@H](O)[C@@]3(C)CC[C@@H]2[C@@]2(C)CCC(=O)C=C12` (stereo partly specified), 0.048 µM.
With `C[C@]12CC[C@H]3[C@@H](CCC4=CC(=O)CC[C@@]43CC#N)[C@@H]1CCC2=O`, half-maximal inhibition (IC50) required 2.6 µM.
For `C[C@]12CC[C@@H]3C4CCC(=O)C(F)=C4CC[C@H]3[C@@H]1CCC2=O` (stereo partly specified) the value was 0.4 µM; for `C[C@]12CC[C@H]3[C@@H](CCC4=C(O)C(=O)CC[C@@]43C(F)F)[C@@H]1CCC2=O`, 2.5 µM.
In the case of `C[C@]12C=C(O)C(=O)C=C1C(=O)C[C@@H]1[C@@H]2CC[C@]2(C)C(=O)CC[C@@H]12` it was 5.6 µM; in that of `CCCCC1C[C@H]2[C@@H]3CC[C@H](O)[C@@]3(C)CC[C@@H]2[C@@]2(C)C=CC(=O)C=C12` (stereo partly specified), 0.064 µM.
`COC1=C2C(=O)C[C@@H]3[C@H](CC[C@]4(C)C(=O)CC[C@@H]34)[C@@]2(C)CCC1=O`: half-maximal inhibition (IC50) was put at 2 µM. This IC50 lies about 31-fold higher than the previous one.
In the case of `C[C@]12C=CC(=O)C=C1C(CCCCc1ccccc1)=C[C@@H]1[C@@H]2CC[C@]2(C)C(=O)CC[C@@H]12` it was 0.15 µM; in that of `COC1=C2C=C[C@@H]3[C@H](CC[C@]4(C)C(=O)CC[C@@H]34)[C@@]2(C)CCC1=O`, 11 µM.
`C[C@]12CC[C@H]3[C@@H](CCC4=CC(=O)CC[C@@]43CC(F)F)[C@@H]1CCC2=O` had a half-maximal inhibitory concentration (IC50) of 4 µM.
In the case of `CCOC1=C2C(=O)C[C@@H]3[C@H](CC[C@]4(C)C(=O)CC[C@@H]34)[C@@]2(C)CCC1=O` it was 4.5 µM; in that of `C[C@]12C[C@@H](F)C(=O)C=C1[C@H](F)C[C@@H]1[C@@H]2CC[C@]2(C)C(=O)CC[C@@H]12`, 1 µM.
In the case of `C[C@]12CC[C@H]3[C@@H](CCC4=CC(=O)C(O)C[C@@]43C(F)F)[C@@H]1CCC2=O` (stereo partly specified) it was 3.8 µM; in that of `C[C@]12CC[C@H]3[C@@H](CC[C@]4(F)[C@@H](O)C(=O)CC[C@]34C)[C@@H]1CCC2=O`, 2.9 µM; in that of `C[C@]12CCC(=O)C=C1C(=O)[C@@H](O)[C@@H]1[C@@H]2CC[C@]2(C)C(=O)CC[C@@H]12`, 11 µM.
For `C[C@]12CC[C@H]3[C@@H](CCC4=CC(=O)CC[C@@]43C#N)[C@@H]1CCC2=O` the value was 25 µM.
Turning to `C[C@]12CCC(=O)C=C1[C@H](Br)C[C@@H]1[C@@H]2CC[C@]2(C)C(=O)CC[C@@H]12`, the IC50 was 0.8 µM.
In the case of `C[C@]12C=CC(=O)C=C1[C@@H](CCCCCc1ccccc1)C[C@@H]1[C@@H]2CC[C@]2(C)C(=O)CC[C@@H]12` it was 0.33 µM; in that of `C[C@]12CC[C@H]3[C@@H](CCC4=CC(=O)CC[C@@]43CCF)[C@@H]1CCC2=O`, 0.7 µM.
The compound `CC(=O)O[C@@H]1C(=O)C2=CC(=O)CC[C@]2(C)[C@H]2CC[C@]3(C)C(=O)CC[C@H]3[C@H]12` registered an IC50 of 5.3 µM.
In the case of `C[C@]12C=CC(=O)C=C1[C@@H](CCCc1ccccc1)C[C@@H]1[C@@H]2CC[C@]2(C)C(=O)CC[C@@H]12` it was 0.511 µM; in that of `COC1=C2C(=O)C[C@@H]3[C@H](CC[C@]4(C)C(=O)CC[C@@H]34)[C@@]2(C)CC(C)(C)C1=O`, 1.9 µM; in that of `CC(=O)OC1=C2CC[C@@H]3[C@H](CC[C@]4(C)C(=O)CC[C@@H]34)[C@@]2(C)CCC1=O`, 1.5 µM.
Regarding `CCC1C[C@H]2[C@@H]3CC[C@H](O)[C@@]3(C)CC[C@@H]2[C@@]2(C)C=CC(=O)C=C12` (stereo partly specified), half-maximal inhibition (IC50) required 0.0619 µM. This IC50 lies about 24-fold lower than the previous one.
In the case of `CC(=O)OC1=C2C=C[C@@H]3[C@H](CC[C@]4(C)C(=O)CC[C@@H]34)[C@@]2(C)CCC1=O` it was 8 µM; in that of `C[C@]12C=CC(=O)C=C1[C@H](CCCCCc1ccccc1)C[C@@H]1[C@@H]2CC[C@]2(C)C(=O)CC[C@@H]12`, 0.1 µM; in that of `C=C[C@]12CCC(=O)C=C1CC[C@@H]1[C@@H]2CC[C@]2(C)C(=O)CC[C@@H]12`, 0.1 µM.
In the case of `C[C@]12CC[C@H]3[C@@H](CCC4=CC(=O)CC[C@@]43C(F)F)[C@@H]1CC[C@@H]2O` it was 0.42 µM; in that of `C[C@]12C=CC(=O)C=C1[C@@H](Cc1ccccc1)C[C@@H]1[C@@H]2CC[C@]2(C)C(=O)CC[C@@H]12`, 0.27 µM; in that of `C[C@]12C=CC(=O)C=C1[C@H](c1ccccc1)C[C@@H]1[C@@H]2CC[C@]2(C)C(=O)CC[C@@H]12`, 0.53 µM.
In the case of `COC1=C2CC[C@@H]3[C@H](CC[C@]4(C)C(=O)CC[C@@H]34)[C@@]2(C)CCC1=O` it was 7.19 µM.
The compound `C=CC[C@]12CCC(=O)C=C1CC[C@@H]1[C@@H]2CC[C@]2(C)C(=O)CC[C@@H]12` showed a 50% inhibitory concentration (IC50) of 1.8 µM.
In the case of `CCC[C@]12CCC(=O)C=C1CC[C@@H]1[C@@H]2CC[C@]2(C)C(=O)CC[C@@H]12` it was 100 µM.
Regarding `C[C@]12C=CC(=O)C=C1[C@H](CCc1ccccc1)C[C@@H]1[C@@H]2CC[C@]2(C)C(=O)CC[C@@H]12`, the IC50 is 0.579 µM.
For `CC1C[C@H]2[C@@H]3CC[C@H](O)[C@@]3(C)CC[C@@H]2[C@@]2(C)CCC(=O)C=C12` (stereo partly specified) the value was 0.018 µM; for `C#C[C@]12CCC(=O)C=C1CC[C@@H]1[C@@H]2CC[C@]2(C)C(=O)CC[C@@H]12`, 1 µM.
`CC1C[C@H]2[C@@H]3CC[C@H](O)[C@@]3(C)CC[C@@H]2[C@@]2(C)C=CC(=O)C=C12` (stereo partly specified): the IC50 was 0.067 µM. Compared with the last compound, the IC50 is about 15-fold lower.
Compound `C[C@]12C=CC(=O)C=C1[C@@H](CCCCc1ccccc1)C[C@@H]1[C@@H]2CC[C@]2(C)C(=O)CC[C@@H]12` had an IC50 of 0.23 µM.
For `C[C@]12CC[C@H]3[C@@H](CCC4=CC(=O)CC[C@@]43CCl)[C@@H]1CCC2=O` the value was 1.4 µM; for `CC(=O)OC1C[C@@]2(C)C(=CC1=O)C(=O)C[C@@H]1[C@@H]2CC[C@]2(C)C(=O)CC[C@@H]12` (stereo partly specified), 24 µM; for `C[C@]12C=CC(=O)C=C1[C@H](CCCCc1ccccc1)C[C@@H]1[C@@H]2CC[C@]2(C)C(=O)CC[C@@H]12`, 0.47 µM.
For `C[C@]12C=CC(=O)C=C1[C@@H](CCc1ccccc1)C[C@@H]1[C@@H]2CC[C@]2(C)C(=O)CC[C@@H]12` the value was 0.32 µM; for `C[C@]12C=CC(=O)C=C1[C@@H](c1ccccc1)C[C@@H]1[C@@H]2CC[C@]2(C)C(=O)CC[C@@H]12`, 0.681 µM.
Turning to `C[C@]12C=CC(=O)C=C1[C@H](CCCc1ccccc1)C[C@@H]1[C@@H]2CC[C@]2(C)C(=O)CC[C@@H]12`, half-maximal inhibition (IC50) was put at 0.7 µM.
`C[C@]12C=CC(=O)C=C1C(CCCCCc1ccccc1)=C[C@@H]1[C@@H]2CC[C@]2(C)C(=O)CC[C@@H]12` gave an IC50 of 0.1 µM.
For `C[C@]12C=CC(=O)C=C1[C@H](Cc1ccccc1)C[C@@H]1[C@@H]2CC[C@]2(C)C(=O)CC[C@@H]12` the value was 0.59 µM.
